Columns and labels:
[1] = target: T1, human progesterone receptor A (Homo sapiens, UniProt P06401); experiment: Progesterone receptor-antagonistic action in stably transfected SK-N-MC cells, MMTV-LUC reporter (PR-A); type: cell-based; settings: antagonistic potency vs 0.1 nmol/l promegestone, 24 hours
T1 construct: expressed in transfected cells; host or cells: SK-N-MC human neuroblastoma cells, stably transfected with pRChPR-A-neo and pMMTV-LUC
T1 sequence (P06401 1-769 isoform P06401-2): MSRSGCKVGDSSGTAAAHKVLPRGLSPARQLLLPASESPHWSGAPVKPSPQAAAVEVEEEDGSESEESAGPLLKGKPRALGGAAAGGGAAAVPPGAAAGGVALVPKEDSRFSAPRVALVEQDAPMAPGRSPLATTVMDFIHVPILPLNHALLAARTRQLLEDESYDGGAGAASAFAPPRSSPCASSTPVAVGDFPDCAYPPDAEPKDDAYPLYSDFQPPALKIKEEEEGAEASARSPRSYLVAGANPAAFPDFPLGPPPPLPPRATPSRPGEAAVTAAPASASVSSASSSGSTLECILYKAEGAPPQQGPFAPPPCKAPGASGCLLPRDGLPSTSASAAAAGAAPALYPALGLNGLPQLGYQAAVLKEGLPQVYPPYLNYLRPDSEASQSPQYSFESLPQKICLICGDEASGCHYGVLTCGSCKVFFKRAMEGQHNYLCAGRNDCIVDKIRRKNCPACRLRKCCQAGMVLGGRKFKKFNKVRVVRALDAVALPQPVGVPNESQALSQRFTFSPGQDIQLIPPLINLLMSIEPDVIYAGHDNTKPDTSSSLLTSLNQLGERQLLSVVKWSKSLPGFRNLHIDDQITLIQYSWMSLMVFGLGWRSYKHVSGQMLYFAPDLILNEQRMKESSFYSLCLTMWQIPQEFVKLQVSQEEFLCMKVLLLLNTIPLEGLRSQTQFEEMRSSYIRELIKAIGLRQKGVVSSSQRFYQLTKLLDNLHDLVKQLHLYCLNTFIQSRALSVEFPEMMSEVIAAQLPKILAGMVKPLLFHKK
In short: (§1)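 Stably transfected SK-N-MC cells express human PR-B or PR-A plus MMTV-LUC. For antagonism they were co-treated with 0.1 nmol/l promegestone and compound (0.01 nmol/l upward) for 24 hours. Luciferase in lysates was read as RLU and reported as % efficacy and IC50.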

[2] = target: T2, human progesterone receptor B (Homo sapiens, UniProt P06401); experiment: Progesterone receptor-antagonistic action in stably transfected SK-N-MC cells, MMTV-LUC reporter (PR-B); type: cell-based; settings: antagonistic potency vs 0.1 nmol/l promegestone, 24 hours
T2 construct: expressed in transfected cells; host or cells: SK-N-MC human neuroblastoma cells, stably transfected with pRChPR-B-neo and pMMTV-LUC
T2 sequence (P06401 1-933): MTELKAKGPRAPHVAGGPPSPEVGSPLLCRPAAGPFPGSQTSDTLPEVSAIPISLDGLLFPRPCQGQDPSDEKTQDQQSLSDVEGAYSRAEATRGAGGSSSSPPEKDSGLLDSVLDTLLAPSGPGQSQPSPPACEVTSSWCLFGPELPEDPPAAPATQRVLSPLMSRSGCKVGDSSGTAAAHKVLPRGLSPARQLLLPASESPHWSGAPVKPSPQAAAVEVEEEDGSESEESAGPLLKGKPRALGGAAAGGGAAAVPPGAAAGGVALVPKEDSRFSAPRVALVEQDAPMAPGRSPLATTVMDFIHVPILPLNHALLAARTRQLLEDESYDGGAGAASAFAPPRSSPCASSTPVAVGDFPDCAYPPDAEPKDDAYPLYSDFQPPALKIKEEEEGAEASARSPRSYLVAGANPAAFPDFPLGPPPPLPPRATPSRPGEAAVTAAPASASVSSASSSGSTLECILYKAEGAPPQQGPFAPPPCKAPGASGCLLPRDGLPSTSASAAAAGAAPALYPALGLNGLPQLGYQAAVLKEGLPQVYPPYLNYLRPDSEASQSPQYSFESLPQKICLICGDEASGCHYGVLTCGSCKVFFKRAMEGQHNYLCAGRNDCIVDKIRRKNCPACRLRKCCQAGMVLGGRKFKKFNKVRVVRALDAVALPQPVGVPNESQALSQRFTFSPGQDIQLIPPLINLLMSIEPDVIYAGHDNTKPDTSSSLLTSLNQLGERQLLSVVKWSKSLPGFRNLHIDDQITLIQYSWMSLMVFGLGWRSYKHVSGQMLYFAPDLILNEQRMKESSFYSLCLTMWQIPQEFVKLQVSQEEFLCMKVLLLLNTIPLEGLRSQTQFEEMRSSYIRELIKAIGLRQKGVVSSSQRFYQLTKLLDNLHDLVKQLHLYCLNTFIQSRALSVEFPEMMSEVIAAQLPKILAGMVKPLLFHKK
In short: as §1

[3] = Metabolic stability in human liver microsomes; type: in vitro ADME; settings: calculated from liver microsome clearance
Description: (§2) Determination of Metabolic Stability in Human and Rat Liver Microsomes
Isolated human liver microsomes (HLM) were used to assess the metabolic stability of compounds of general formula I.
(§3) The incubations were conducted with 2.4 ml of HLM solution (protein content 0.5 mg/ml), 30 μl of the test compound (final concentration 1 μM) and 0.6 ml of the cofactor mixture (=NADPH-generating system composed of 3 IU glucose-6-phosphate dehydrogenase, 14.6 mg glucose-6-phosphate, 1.2 mg NADP) at 37° C. in 100 mM phosphate buffer at pH 7.4. Samples were taken at 6 time points (2-60 min) and precipitated with an equal volume of methanol, and the recovery of the test substances used in the supernatant was determined by LC-MS/MS analysis. The half-life of substance degradation determined therefrom was used to calculate what is called the intrinsic clearance of the substance in the liver microsome preparation. […] In addition, under the assumptions that (i) absorption of the test substance is 100%, and (ii) the first pass is completely reflected by liver microsome metabolism, a maximum oral bioavailability (Fmax) was calculated.

[4] = Metabolic stability in rat liver microsomes; type: in vitro ADME; settings: calculated from liver microsome clearance
Description: as §2, §3

| SMILES | IC50 [1] [nM] | IC50 [2] [nM] | Predicted Fmax (maximum oral bioavailability) [3] [%] | Predicted Fmax (maximum oral bioavailability) [4] [%] |
| --- | --- | --- | --- | --- |
| CC1(C)OCC(C)(c2ccc([C@H]3C[C@@]4(C)[C@@H](CC[C@@]4(O)C(F)(F)C(F)(F)F)[C@@H]4CCC5=CC(=O)CCC5=C43)cc2)CO1 [Example 15B, (8S,11R,13S,14S,17S)-17-hydroxy-13-methyl-17-pentafluoroethyl-11-[4-(2,2,5-trimethyl-[1,3]dioxan-5-yl)phenyl]-1,2,6,7,8,11,12,13,14,15,16,17-dodecahydrocyclopenta[a]phenanthren-3-one] | 0.01 | 0.01 | 5.0 | 4.7 |
| C[C@]12C[C@H](c3ccc(-c4ccc(-c5nnn[nH]5)cc4)cc3)C3=C4CCC(=O)C=C4CC[C@H]3[C@@H]1CC[C@@]2(O)C(F)(F)C(F)(F)F [Example 29, (8S,11R,13S,14S,17S)-17-hydroxy-13-methyl-17-pentafluoroethyl-11-[4′-(1H-tetrazol-5-yl)biphenyl-4-yl]-1,2,6,7,8,11,12,13,14,15,16,17-dodecahydrocyclopenta[a]phenanthren-3-one] | 0.3 | 0.9 | 69 | 93 |
| C[C@]12C[C@H](c3ccc(C#N)cc3)C3=C4CCC(=O)C=C4CC[C@H]3[C@@H]1CC[C@@]2(O)C(F)(F)C(F)(F)F [Example 30, 4-((8S,11R,13S,14S,17S)-17-hydroxy-13-methyl-3-oxo-17-pentafluoroethyl-2,3,6,7,8,11,12,13,14,15,16,17-dodecahydro-1H-cyclopenta[a]phenanthren-11-yl)benzonitrile] | 0.02 | 0.08 | 63 | 79 |

Reference: patent US9206219B2, “17-hydroxy-17-pentafluorethyl-estra-4,9(10)-dien-11-aryl derivatives, methods for the production thereof and the use thereof for treating diseases” (Bayer Intellectual Property GmbH, priority 2009, dated 2015)
